From patent US5250424A, “Processes for preparing novel squalene synthetase inhibitors” (Merck & Co., Inc., priority 1992, dated 1993)

System: squalene synthetase
Experiment: Squalene synthetase assay (rat liver microsomes, [4-14C]farnesyl pyrophosphate)
Type: biochemical
Conditions: C18 HPLC fractions of Curvularia lunata (MF5573 or MF5572) fermentation extract, shown to contain Compound (I)
Protocol: Male, Charles River CD rats (120 to 150 g) were fed a diet containing 0.1% lovastatin for 4 days. The livers from these rats were homogenized in 5 volumes (mL/g) of ice cold 50 mm HEPES (4-(2-hydroxyethyl)-1-piperazine-ethanesulfonic acid), 5 mm EDTA(ethylenediaminetetraacetic acid) pH 7.5 with a Potter-Elvehjem type tissue grinder. The homogenate was centrifuged twice at 20,000×g for 15 min. at 4° C., discarding the pellet each time. The supernatant was then centrifuged at 100,000×g for 1 hr. at 4° C. The resulting microsomal pellet was resuspended in a volume of the above homogenizing buffer equal to one-fifth the volume of the original homogenate. This microsomal preparation has a protein concentration of about 7 mg/ml. The microsomal suspensions were stored in aliquots at -70° C. Squalene synthetase activity in these aliquots is stable for at least several months.
SQUALENE SYNTHETASE ASSAY
Reactions were performed in 16×125 mm screw cap test tubes. A batch assay mix was prepared from the following solution:
This assay mix was degassed under a vacuum and flushed with N2. […] Ten mL of scintillation fluid was added to the heptane solution and radio-activity was determined by liquid scintillation counting.
Percent inhibition is calculated by the formula: [formula]

Structure (SMILES): C=C(CCC12OC(C(=O)O)C(O)(C(=O)O)C(C(=O)O)(O1)C(OC(=O)/C=C/C(C)CC(C)CC)C2O)C(OC(C)=O)C(C)Cc1ccccc1 (stereo not shown) [Compound (I)]
- activity in the squalene synthetase assay: active
